In ChEMBL document CHEMBL1201862, “PubChem BioAssay data set” (2004):
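Following 48 hours of exposure in 96-well plates, responses at five concentrations were used to interpolate endpoints linearly. Here, GI50 denotes the concentration required for 50% inhibition of growth.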 Calls of active or inactive are those of the source. Cut-off read from the data, not from the text of the source: active = GI50 up to about 1.1 µM and inactive = higher.

Legend:
Experiment in all cases: NCI-60 cell line screen, 48 h
[1] = system: MDA-MB-435
[2] = system: HOP-92
[3] = system: HL-60
[4] = system: RXF 393
[5] = system: HCC 2998
[6] = system: HCT-116
[7] = system: HT-29
[8] = system: KM12
[9] = system: SK-MEL-5
[10] = system: NCI/ADR-RES
[11] = system: UACC-257
[12] = system: SF-295
[13] = system: MDA-N
[14] = system: SW-620
[15] = system: SNB-19
[16] = system: COLO 205
[17] = system: UACC-62
[18] = system: SF-268
[19] = system: PC-3
[20] = system: SK-MEL-2
[21] = system: NCI-H460
[22] = system: HCT-15
[23] = system: OVCAR-8
[24] = system: T47D
[25] = system: LOX IMVI
[26] = system: 786-0
[27] = system: TK-10
[28] = system: Malme-3M
[29] = system: IGROV-1
[30] = system: SK-OV-3
[31] = system: UO-31
[32] = system: CAKI-1
[33] = system: U-251
[34] = system: CCRF-CEM
[35] = system: HOP-62
[36] = system: K562
[37] = system: RPMI-8226
[38] = system: SK-MEL-28
[39] = system: SN12C
[40] = system: NCI-H522
[41] = system: SNB-75
[42] = system: ACHN
[43] = system: SR
[44] = system: OVCAR-5
[45] = system: M14
[46] = system: EKVX
[47] = system: DU-145
[48] = system: MCF7
[49] = system: OVCAR-4
[50] = system: A549
[51] = system: NCI-H226
[52] = system: MDA-MB-231
[53] = system: MOLT-4
[54] = system: SF-539
[55] = system: A498
[56] = system: NCI-H23
[57] = system: OVCAR-3

Measured: GI50

N#C/C(=C\c1cccc(Br)c1)c1nc2ccccc2c(=O)[nH]1
inactive: [1] > 100 µM | [2] 15.1 µM | [3] > 100 µM | [4] > 100 µM | [5] > 100 µM | [6] > 100 µM | [7] > 100 µM | [8] > 100 µM | [9] > 100 µM | [10] > 100 µM | [11] > 100 µM | [12] 53.5 µM | [13] > 100 µM | [14] > 100 µM | [15] 43.7 µM | [16] > 100 µM | [17] 76.2 µM | [18] > 100 µM | [19] > 100 µM | [20] > 100 µM | [21] > 100 µM | [23] > 100 µM | [24] > 100 µM | [25] > 100 µM | [26] 49.4 µM | [27] 42.1 µM | [28] > 100 µM | [29] > 100 µM | [30] > 100 µM | [31] > 100 µM | [32] > 100 µM | [33] 40.3 µM | [34] > 100 µM | [35] 21.9 µM | [36] > 100 µM | [37] > 100 µM | [38] > 100 µM | [39] > 100 µM | [40] 37.9 µM | [41] 17.7 µM | [42] 54.7 µM | [43] 92.9 µM | [44] > 100 µM | [45] > 100 µM | [46] > 100 µM | [47] > 100 µM | [48] > 100 µM | [49] > 100 µM | [50] > 100 µM | [51] > 100 µM | [52] 41.7 µM | [53] > 100 µM | [54] 47.9 µM
> 100 µM: [22]

CC[n+]1cnc(N)c2c(-c3ccc(Cl)cc3)cn(-c3ccc(C)cc3)c21
active: [48] 0.971 µM
14.9 µM: [22]
inactive: [1] 11.5 µM | [2] 11.2 µM | [3] 24.8 µM | [4] 3.05 µM | [5] 4.33 µM | [55] 11.4 µM | [6] 9.4 µM | [7] 4.36 µM | [8] 15.8 µM | [9] 10.3 µM | [10] 12.9 µM | [11] 2.82 µM | [12] 12.7 µM | [13] 12.5 µM | [14] 15.3 µM | [15] 15.5 µM | [16] 3.78 µM | [17] 11.4 µM | [18] 13.6 µM | [19] 10.5 µM | [20] 18.7 µM | [21] 15.7 µM | [23] 18.5 µM | [24] 12 µM | [25] 11.4 µM | [26] 11.4 µM | [27] 17.6 µM | [28] 12.3 µM | [29] 13.1 µM | [30] 15.4 µM | [56] 19.1 µM | [31] 9.93 µM | [32] 16 µM | [57] 9.38 µM | [33] 11.9 µM | [34] 6.89 µM | [35] 16.8 µM | [36] 5.33 µM | [38] 9.33 µM | [39] 12.3 µM | [40] 15.5 µM | [41] 3.56 µM | [42] 12.9 µM | [43] 4.6 µM | [44] 15.8 µM | [45] 1.94 µM | [46] 14.8 µM | [47] 17.9 µM | [49] 2.77 µM | [50] 12.7 µM | [51] 13.2 µM | [52] 17 µM | [53] 4.52 µM | [54] 14.6 µM
